Series [1] in a line: Degradation/deprotection of arsonate ester-protected dye in 25% aqueous ammonia (Method G, HPLC). The class given is physicochemical. On the procedure: (§1) Measuring of Degradation/Deprotection Rate of Arsonate Esters-protected Dye.
(§2) A protected dye (1 mg) and Methyl Red dye (0.5 mg, internal standard, λmax 482 nm) were dissolved in MeOH (5 mL) and mixed with a buffer or 25% aqueous ammonia (45 mL). Samples (1 mL) were taken over a period of degradation. The samples were quickly placed under vacuum to remove ammonia and redissolved in MeOH or used directly for HPLC analysis in buffers in a range of pH 1.6 (0.1% trifluoroacetic acid)-7.5 (0.1 M triethylammonium acetate). HPLC analysis was performed on Phenomenex Gemini 5 um C18 110A column (250×4.6 mm) using 0-100% gradient of MeCN in 0.1M triethylammonium acetate (pH 7.5) buffer. The chromatogram was detected in a range 200-600 nm using Varian ProStar PDA detector. Calculations of the relative concentrations were performed based on peaks area at 520 nm. An internal standard gives a peak at 8.6 min (λmax 482 nm).
FIG. 12 illustrates an example of a typical kinetic curve corresponding to the base-induced deprotection of a bis-pinacol protected azodye.

The nature of series [2]: Degradation/deprotection of arsonate ester-protected dye in aqueous buffers (Method G, HPLC). The class given is physicochemical. Conditions: for stability in aqueous buffers: range of pH 1.6-7.5 in aqueous buffers. How it is done: as §1, §2
Setting [3] is: 25% aqueous ammonia, room temperature.

SMILES strings stand for the structures.

For `CN(C)c1ccc(N=Nc2ccc([As]34(OC(C)(C)C(C)(C)O3)OC(C)(C)C(C)(C)O4)cc2)cc1` [Example 11, [4-(4′-Dimethylaminophenylazo)phenyl]arsonic acid bis-pinacolate], in series [1] (25% aqueous ammonia), the “stability / degradation in 25% aqueous ammonia” value is on record as “degrades”. For the same molecule, in series [1] (setting [3]), the “Rate of degradation (τ1/2)” value is “approximately 3 hr”. Besides, in series [2], the “stability in aqueous buffers” value is given as “stable”.
On to `CN(C)c1ccc(N=Nc2ccc([As]3(=O)OC(C)(C)CC(C)(C)O3)cc2)cc1` [Example 12, [4-(4′-Dimethylaminophenylazo)phenyl]arsonic acid 2,4-dimethyl-2,4-pentanediol chelate], for which the “stability / degradation in 25% aqueous ammonia” value in series [1] (25% aqueous ammonia) is “degrades quickly”. Further, in series [1] (setting [3]), the “Rate of full degradation (τ1/2)” value is reported as “approximately 15 min” and the “time after which practically full deprotection was observed” value was found to be 4 h. Besides, the “stability in aqueous buffers” value in series [2] is “relatively stable”.
Turning to `CN(C)c1ccc(N=Nc2ccc([As]3(=O)OC(=O)C(C)(C)O3)cc2)cc1` (stereo not drawn) [Example 13, [4-(4′-Dimethylaminophenylazo)phenyl]arsonic acid, chelate with 2-hydroxy-isobutyric acid], in series [2] (acidic conditions, aqueous buffers), the “degradation in acidic conditions” value is recorded as “degrades instantly”. Further, in series [2] (buffer, room temperature, pH 7.5), the “time after which practically full deprotection was observed” value stood at 2 h. For the same molecule, the “degradation at pH 7.5” value in series [2] (pH 7.5 aqueous buffer) is on record as “within minutes”. Besides, the “stability in aqueous buffers” value in series [2] was “very unstable”. Also, the “Rate of full degradation (τ1/2)” value in series [2] (room temperature and pH 7.5 buffer) was “approximately 10 min”.
In the case of `CN(C)c1ccc(N=Nc2ccc([As]34(Oc5ccccc5O3)Oc3ccccc3O4)cc2)cc1` [Example 14, [4-(4′-Dimethylaminophenylazo)phenyl]arsonic acid bis-catechol chelate], the “stability / degradation in 25% aqueous ammonia” value in series [1] (25% aqueous ammonia) is “very stable”. The “degradation of the compound observed” value in series [1] (over 3 days period, 25% aqueous ammonia at room temperature (and pH 1.6-7.5 buffers)) is reported as “No degradation”. In addition, the “stability in aqueous buffers” value in series [2] is reported as “very stable”.

For the origin of these results see patent publication US8546590B2, “Polar dyes” (Cepheid, priority 2005, dated 2013).
